Results published in ChEMBL document CHEMBL5303304, “EUbOPEN Chemogenomics Library - IncuCyte” (2023).
“And” between values parts separate entries of the source, which are not always exact repeats. Identical values can stand only once.

Tests used:
Format in all cases: toxicity, cell-based
[1] = tested on: HEK-293T; test: Incucyte cell viability with HEK293T; conditions: human, 10 µM, compound concentration 10 uM
[2] = tested on: U2OS; test: Incucyte cell viability with U2OS; conditions: human, 10 µM, compound concentration 10 uM
[3] = tested on: Fibroblast; test: Incucyte cell viability with human fibroblast; conditions: 10 µM, compound concentration 10 uM
Note: unitless GR value; below 1 slowed growth and below 0 cell loss.

Structure (SMILES) | Growth Rate ([1]; 0 h, replicate number 2) | Growth Rate ([1]; 6 h, replicate number 2) | Growth Rate ([1]; 12 h, replicate number 2) | Growth Rate ([2]; 6 h, replicate number 2) | Growth Rate ([2]; 12 h, replicate number 1) | Growth Rate ([2]; 12 h, replicate number 2) | Growth Rate ([2]; 18 h, replicate number 1) | Growth Rate ([2]; 18 h, replicate number 2) | Growth Rate ([2]; 24 h, replicate number 1) | Growth Rate ([2]; 24 h, replicate number 2) | Growth Rate ([3]; 6 h, replicate number 2) | Growth Rate ([3]; 12 h, replicate number 2) | Growth Rate ([1]; 12 h, replicate number 1) | Growth Rate ([1]; 18 h, replicate number 1) | Growth Rate ([1]; 18 h, replicate number 2) | Growth Rate ([1]; 24 h, replicate number 1) | Growth Rate ([1]; 24 h, replicate number 2) | Growth Rate ([3]; 12 h, replicate number 1) | Growth Rate ([3]; 24 h, replicate number 1) | Growth Rate ([3]; 24 h, replicate number 2) | further results
CCNC(=O)c1ccc2c(c1)NC(=O)/C2=C(\Nc1ccc(CN(C)C)cc1)c1ccccc1 | -1 | 0.16 | 0.83 | 1 | 0.63 and 0.95 | 0.85 | 0.75 and 0.9 | 0.8 | 0.84 and 0.87 | 0.83 | 0.09 | 0.8 |  |  |  |  |  |  |  |  | Growth Rate ([2]; 0 h, replicate number 2): 0.96; Growth Rate ([2]; 6 h, replicate number 1): 0.67 and 0.82; Growth Rate ([3]; 0 h, replicate number 2): 0.87
Cn1cc(NC(=O)c2ccc3nc4n(c3c2)CCCNC4=O)nc1C(=O)NC1CCCC1 | 0.71 | 0.99 | 0.88 |  | 0.82 | 0.97 | 0.95 | 0.99 | 0.91 |  | 0.57 | 0.76 | 0.69 | 0.64 | 0.85 | 0.81 | 0.9 | 0.67 | 0.79 | 0.92 | Growth Rate ([2]; 0 h, replicate number 1): 0.36; Growth Rate ([3]; 0 h, replicate number 1): 0.88; Growth Rate ([3]; 0 h, replicate number 2): 0.62; Growth Rate ([3]; 18 h, replicate number 1): 0.91; Growth Rate ([3]; 18 h, replicate number 2): 0.78
CN(C)[C@H]1CCc2nc(NC(=O)c3cccc(Cn4cc(-c5ccc(C#N)cc5)cn4)c3)sc2C1.O=C(O)C(F)(F)F | -0.96 | 0.68 | 0.74 |  |  |  |  | 0.89 |  | 0.75 |  |  | 0.52 | 0.59 | 0.68 | 0.51 | 0.62 |  |  | 0.57 | Growth Rate ([1]; 6 h, replicate number 1): 0.98; Growth Rate ([3]; 0 h, replicate number 1): -0.59; Growth Rate ([3]; 0 h, replicate number 2): -0.64
Cl.NC(=O)c1ccccc1Nc1nc(-c2ccc(N3CCOCC3)cc2)cc2ncccc12 | -1 | -0.55 | -0.36 | 0.39 | 0.57 | 0.32 | 0.62 | 0.25 | 0.66 | 0.24 | -0.47 | -0.21 | -0.4 | -0.2 | -0.24 | -0.11 |  | 0.05 | 0.07 | -0.07 | Growth Rate ([1]; 6 h, replicate number 1): -0.65; Growth Rate ([2]; 0 h, replicate number 2): 0.86; Growth Rate ([2]; 6 h, replicate number 1): 0.76; Growth Rate ([3]; 6 h, replicate number 1): -0.14; Growth Rate ([3]; 18 h, replicate number 1): 0.13; Growth Rate ([3]; 18 h, replicate number 2): -0.14
CC#CC(=O)N1CCN(c2nc(-c3ccc(Oc4ccccc4)cc3)c(C(N)=O)s2)CC1 | -0.85 | 0.66 | 0.74 | 0.82 | 0.55 | 0.92 | 0.66 | 0.94 | 0.69 | 0.94 | 0.18 | 0.22 | 0.43 | 0.61 | 0.6 | 0.66 | 0.64 | 0.5 | 0.32 | 0.44 | Growth Rate ([1]; 6 h, replicate number 1): 0.41; Growth Rate ([2]; 0 h, replicate number 1): 0.94; Growth Rate ([2]; 6 h, replicate number 1): 0.5; Growth Rate ([3]; 0 h, replicate number 1): 0.51; Growth Rate ([3]; 0 h, replicate number 2): 0.75; Growth Rate ([3]; 6 h, replicate number 1): 0.87; Growth Rate ([3]; 18 h, replicate number 1): 0.52; Growth Rate ([3]; 18 h, replicate number 2): 0.4
COC1(C#Cc2ccc(Cl)c(-c3ncc4c(n3)-c3sc(NC(C)=O)nc3CC4)c2)CCN(C)CC1 | -1 | -0.37 | -0.19 | 0.62 | 0.91 | 0.66 | 0.64 |  | 0.78 | 0.62 | -0.27 | -0.12 | -0.29 | -0.17 | -0.1 | -0.05 | 0.05 | 0.03 | -0.11 | -0.15 | Growth Rate ([1]; 6 h, replicate number 1): -0.41; Growth Rate ([2]; 0 h, replicate number 1): 0.64; Growth Rate ([2]; 0 h, replicate number 2): 0.98; Growth Rate ([2]; 6 h, replicate number 1): 0.79; Growth Rate ([3]; 6 h, replicate number 1): 0.02; Growth Rate ([3]; 18 h, replicate number 1): -0.03; Growth Rate ([3]; 18 h, replicate number 2): -0.14
Cc1cc(-c2cc3ncccc3c(OC[C@H]3CCCNC3)n2)ccc1N(C)C.O=C(O)C(F)(F)F | -1 | -0.53 | -0.44 | 0.47 | 0.77 | 0.26 | 0.28 | 0.19 | 0.47 | 0.16 |  |  | -0.47 | -0.34 | -0.28 | -0.25 | -0.18 |  | 0.79 | 0.85 | Growth Rate ([1]; 6 h, replicate number 1): -0.57; Growth Rate ([3]; 0 h, replicate number 1): -0.49; Growth Rate ([3]; 0 h, replicate number 2): -0.85
CC(C)NC(=O)[C@H]1CCC[C@H]1Nc1nc(Nc2ccc(CN(C)C)cc2)ncc1Br.Cl | -1 | -0.5 | -0.36 | 0.17 | -0.31 | 0.15 | 0.3 | 0.24 | 0.32 | 0.2 | -0.82 | -0.59 | -0.3 | -0.04 | -0.19 | 0.2 | 0.01 | -0.42 | -0.38 | -0.46 | Growth Rate ([1]; 6 h, replicate number 1): -0.59; Growth Rate ([2]; 0 h, replicate number 1): -0.38; Growth Rate ([2]; 0 h, replicate number 2): 0.74; Growth Rate ([2]; 6 h, replicate number 1): 0.07; Growth Rate ([3]; 6 h, replicate number 1): -0.53; Growth Rate ([3]; 18 h, replicate number 1): -0.37; Growth Rate ([3]; 18 h, replicate number 2): -0.51
COc1cc(C(=O)NC2CCN(C)CC2)ccc1Nc1ncc(C(F)(F)F)c(NCc2ccc(C)cc2N(C)S(C)(=O)=O)n1.O=CO.O=CO | -1 | -0.51 | -0.48 | -0.57 | 0.11 | -0.43 | -0.12 | -0.46 | -0.27 | -0.53 | -0.42 | -0.43 | -0.63 | -0.54 | -0.33 | -0.45 | -0.34 | -0.37 | -0.58 | -0.54 | Growth Rate ([1]; 6 h, replicate number 1): -0.77; Growth Rate ([2]; 0 h, replicate number 1): -0.98; Growth Rate ([2]; 0 h, replicate number 2): -0.24; Growth Rate ([2]; 6 h, replicate number 1): 0.97; Growth Rate ([3]; 6 h, replicate number 1): -0.43; Growth Rate ([3]; 18 h, replicate number 1): -0.52; Growth Rate ([3]; 18 h, replicate number 2): -0.55
CC(C)NC(=O)[C@H]1CCC[C@H]1Nc1nc(Nc2ccc(C(=O)N(C)C3CCN(C)CC3)cc2)ncc1Cl | -1 |  |  | 0.48 |  | 0.53 and 0.52 | 0.54 and 0.76 | 0.6 and 0.8 | 0.63 | 0.61 and 0.9 | -0.29 |  | 0.62 and 0.41 | 0.71 and 0.79 | 0.56 | 0.85 | 0.69 and 0.88 | 0.11 and 0.25 | 0.54 | 0.47 | Growth Rate ([2]; 0 h, replicate number 1): 0.59; Growth Rate ([2]; 0 h, replicate number 2): 0.92; Growth Rate ([3]; 0 h, replicate number 1): -1; Growth Rate ([3]; 18 h, replicate number 1): 0.31 and 0.66; Growth Rate ([3]; 18 h, replicate number 2): 0.24 and 0.59
CCNc1ccc(-c2nn(-c3ccccc3C)c3c2C(C)Cc2nc(NC(=O)OC)sc2-3)cn1.O=C(O)C(F)(F)F (configuration not stated) | -0.93 | 0.14 | -0.12 | 0.13 | 0.39 | 0.24 | 0.27 | 0.25 | -0.06 | 0.07 | -0.7 | -0.37 | -0.41 | -0.23 | 0.03 | -0.1 | -0.01 | -0.55 | -0.11 | -0.06 | Growth Rate ([1]; 6 h, replicate number 1): -0.42; Growth Rate ([2]; 0 h, replicate number 1): -0.28; Growth Rate ([2]; 6 h, replicate number 1): 0.5; Growth Rate ([3]; 6 h, replicate number 1): -0.81; Growth Rate ([3]; 18 h, replicate number 1): -0.28; Growth Rate ([3]; 18 h, replicate number 2): -0.19
